From publication PMC5862592, “CDK8/19 inhibition induces premature G1/S transition and ATR-dependent cell death in prostate cancer cells” (Oncotarget, 2018)
Like-named read-outs stand apart in the source and are kept apart here.

Tests used:
HASPIN [1] = biological target: T1, HASPIN (Homo sapiens, UniProt Q8TF76); experiment: biochemical; set-up: KINOMEscan active site-directed competition binding assay (DiscoveRx), 456 kinases, per cent of control at 300 nM; details: sheet T-418; read-out: Percent of Control (%)
T1 sequence (Q8TF76 whole entry): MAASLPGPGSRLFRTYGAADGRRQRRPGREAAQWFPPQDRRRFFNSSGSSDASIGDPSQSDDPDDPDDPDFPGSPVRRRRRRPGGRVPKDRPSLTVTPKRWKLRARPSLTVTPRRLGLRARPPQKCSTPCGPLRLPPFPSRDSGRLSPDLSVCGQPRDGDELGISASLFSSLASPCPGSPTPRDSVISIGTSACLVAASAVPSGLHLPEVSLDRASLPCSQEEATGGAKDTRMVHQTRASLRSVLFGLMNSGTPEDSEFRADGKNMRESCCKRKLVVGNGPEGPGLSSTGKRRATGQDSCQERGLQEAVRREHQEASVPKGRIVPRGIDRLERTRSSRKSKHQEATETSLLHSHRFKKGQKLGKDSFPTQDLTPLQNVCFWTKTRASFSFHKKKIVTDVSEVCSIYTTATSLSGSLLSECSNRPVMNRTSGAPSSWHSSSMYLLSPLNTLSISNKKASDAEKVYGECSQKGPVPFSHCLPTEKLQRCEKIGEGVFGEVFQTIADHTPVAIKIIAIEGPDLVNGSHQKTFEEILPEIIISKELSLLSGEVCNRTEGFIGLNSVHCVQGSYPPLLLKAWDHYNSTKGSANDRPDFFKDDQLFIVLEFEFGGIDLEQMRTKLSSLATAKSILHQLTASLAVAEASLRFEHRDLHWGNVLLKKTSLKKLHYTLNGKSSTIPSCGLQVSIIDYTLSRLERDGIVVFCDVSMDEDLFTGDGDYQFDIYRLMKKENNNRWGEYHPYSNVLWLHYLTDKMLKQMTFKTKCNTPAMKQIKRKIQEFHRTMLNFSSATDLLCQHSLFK
Procedure, shortened: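 At 300 nmol/L, compounds were assessed for kinase binding in an active site-directed competition format covering 456 kinases.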

CDK19 [2] = biological target: T2, CDK19 (Homo sapiens, UniProt Q9BWU1); experiment: TR-FRET ligand displacement assay (Kinase Tracer […], Tb-anti-GST); also KINOMEscan […] inhibition at […]; type: binding
T2 construct: GST-CDK19; with Cyclin C
T2 sequence (Q9BWU1 whole entry): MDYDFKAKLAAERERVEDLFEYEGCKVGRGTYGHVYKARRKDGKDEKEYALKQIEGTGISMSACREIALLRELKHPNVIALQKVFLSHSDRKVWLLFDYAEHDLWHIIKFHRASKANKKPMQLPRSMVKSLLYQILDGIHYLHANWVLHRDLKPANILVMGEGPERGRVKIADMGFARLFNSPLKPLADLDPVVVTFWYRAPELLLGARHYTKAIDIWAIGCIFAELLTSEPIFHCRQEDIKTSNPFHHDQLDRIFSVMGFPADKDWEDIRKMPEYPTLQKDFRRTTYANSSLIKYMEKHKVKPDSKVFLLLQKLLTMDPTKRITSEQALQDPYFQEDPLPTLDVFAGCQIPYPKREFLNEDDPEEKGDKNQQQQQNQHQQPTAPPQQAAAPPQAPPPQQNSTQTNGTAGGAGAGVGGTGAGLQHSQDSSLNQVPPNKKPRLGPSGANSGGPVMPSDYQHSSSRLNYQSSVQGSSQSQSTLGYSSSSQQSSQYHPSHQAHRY
T2 sequence (P24863 whole entry partner): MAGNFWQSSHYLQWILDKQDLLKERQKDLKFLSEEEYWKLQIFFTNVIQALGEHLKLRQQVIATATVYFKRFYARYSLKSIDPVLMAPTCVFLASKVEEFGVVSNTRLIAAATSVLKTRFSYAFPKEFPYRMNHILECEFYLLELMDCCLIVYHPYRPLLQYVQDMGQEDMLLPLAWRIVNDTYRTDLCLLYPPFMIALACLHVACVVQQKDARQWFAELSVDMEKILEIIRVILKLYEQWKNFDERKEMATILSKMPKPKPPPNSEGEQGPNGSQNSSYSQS

CDK8 = CDK8 (Homo sapiens, UniProt P49336); experiment: as above; type: binding; set-up: GST-CDK8; with Cyclin C
Sequence of CDK8 (P49336 whole entry): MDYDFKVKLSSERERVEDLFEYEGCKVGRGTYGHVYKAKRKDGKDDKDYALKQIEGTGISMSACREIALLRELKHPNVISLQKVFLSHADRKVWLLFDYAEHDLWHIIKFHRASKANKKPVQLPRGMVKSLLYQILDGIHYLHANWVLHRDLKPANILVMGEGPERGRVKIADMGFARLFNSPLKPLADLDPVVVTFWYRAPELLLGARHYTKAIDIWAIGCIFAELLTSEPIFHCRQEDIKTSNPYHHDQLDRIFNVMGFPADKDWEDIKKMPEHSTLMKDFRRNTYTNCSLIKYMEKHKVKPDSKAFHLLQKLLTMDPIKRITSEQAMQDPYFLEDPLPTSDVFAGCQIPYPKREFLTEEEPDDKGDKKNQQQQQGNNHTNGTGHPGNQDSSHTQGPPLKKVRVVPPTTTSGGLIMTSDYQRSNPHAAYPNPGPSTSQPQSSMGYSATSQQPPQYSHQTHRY
Sequence of CDK8 (P24863 whole entry partner): as the sequence (P24863 whole entry partner) above

CDK19 [3] = biological target: T2, CDK19; experiment: as above; type: binding; remark: listed apart in the source
HASPIN [4] = biological target: T1, HASPIN; experiment: KINOMEscan competition binding at a single concentration ([…]); details: read-out: % inhibition at 300 nM

O=C(/C=C/c1cnccc1-c1ccc(F)cc1)Nc1ccc(CCc2nnco2)cc1 [T-418, (2E)-3-(4-(4-fluorophenyl)pyridin-3-yl)-N-(4-(2-(1,3,4-oxadiazol-2-yl)ethyl)phenyl)acrylamide]
remaining binding at 0.3 µM (HASPIN [1]): 90%
IC50 (CDK19 [2]): 62 nM

Cc1ncccc1Oc1sc(C(N)=O)c2c1-c1c(cnn1C)CC2 [T-474, 1-methyl-8-((2-methylpyridin-3-yl)oxy)-4,5-dihydro-1H-thieno[3,4-g]indazole-6-carboxamide]
IC50 (CDK8): 1.6 nM
IC50 (CDK19 [3]): 1.9 nM
inhibition at 0.3 µM (HASPIN [4]): 99%
